Assay [1] addresses T1, isolated recombinant JAK1 kinase domain (Homo sapiens, UniProt P23458).
T1 construct: isolated recombinant JAK1 and JAK2 kinase domain
Put plainly: JAK enzyme assay (Caliper LabChip), JAK1. The assay is classed as biochemical. To be noted: 1.5 nM JAK1, ATP 25 μM, 22° C., 30 minutes; Morrison tight binding model. On the procedure:
(§1) The activity of the isolated recombinant JAK1 and JAK2 kinase domain was measured by monitoring phosphorylation of a peptide derived from JAK3 (Val-Ala-Leu-Val-Asp-Gly-Tyr-Phe-Arg-Leu-Thr-Thr, fluorescently labeled on the N-terminus with 5-carboxyfluorescein) using the Caliper LabChip® technology (Caliper Life Sciences, Hopkinton, Mass.). To determine inhibition constants (Ki), compounds were diluted serially in DMSO and added to 50 μL kinase reactions containing purified enzyme (1.5 nM JAK1, or 0.2 nM JAK2), 100 mM HEPES buffer (pH 7.2), 0.015% Brij-35, 1.5 μM peptide substrate, ATP (25 μM), 10 mM MgCl2, 4 mM DTT at a final DMSO concentration of 2%. Reactions were incubated at 22° C. in 384-well polypropylene microtiter plates for 30 minutes and then stopped by addition of 25 μL of an EDTA containing solution (100 mM HEPES buffer (pH 7.2), 0.015% Brij-35, 150 mM EDTA), resulting in a final EDTA concentration of 50 mM. After termination of the kinase reaction, the proportion of phosphorylated product was determined as a fraction of total peptide substrate using the Caliper LabChip® 3000 according to the manufacturer's specifications. Ki values were then determined using the Morrison tight binding model (Morrison, J. F., Biochim. Biophys. Acta. 185:269-296 (1969); William, J. W. and Morrison, J. F., Meth. Enzymol., 63:437-467 (1979)) modified for ATP-competitive inhibition [Ki ═Ki,app/(1+[ATP]/Km,app)].

Assay [2] deals with T2, isolated recombinant JAK2 kinase domain (Homo sapiens, UniProt O60674).
T2 construct: isolated recombinant JAK1 and JAK2 kinase domain
Nature of the assay: JAK enzyme assay (Caliper LabChip), JAK2. Format: biochemical. As to conditions: 0.2 nM JAK2, ATP 25 μM, 22° C., 30 minutes; Morrison tight binding model. On the procedure:
as §1

T1 sequence (P23458 875-1153 limits assumed): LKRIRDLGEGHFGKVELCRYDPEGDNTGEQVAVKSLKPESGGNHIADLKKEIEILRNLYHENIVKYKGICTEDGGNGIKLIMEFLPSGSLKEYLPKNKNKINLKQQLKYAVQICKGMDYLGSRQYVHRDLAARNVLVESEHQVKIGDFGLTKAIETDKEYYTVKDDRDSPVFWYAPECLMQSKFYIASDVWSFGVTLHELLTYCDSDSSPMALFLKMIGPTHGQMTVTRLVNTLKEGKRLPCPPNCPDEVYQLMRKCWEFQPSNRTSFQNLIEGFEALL
T2 sequence (O60674 849-1124 limits assumed): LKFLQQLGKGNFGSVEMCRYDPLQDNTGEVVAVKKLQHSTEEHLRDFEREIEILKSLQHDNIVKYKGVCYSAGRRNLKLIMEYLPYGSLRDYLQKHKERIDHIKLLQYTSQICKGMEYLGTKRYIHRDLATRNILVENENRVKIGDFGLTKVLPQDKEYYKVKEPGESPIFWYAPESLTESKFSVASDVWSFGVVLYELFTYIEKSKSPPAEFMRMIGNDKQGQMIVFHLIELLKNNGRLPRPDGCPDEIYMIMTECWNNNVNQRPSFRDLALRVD

In the case of `CCCCn1cc(Nc2nc3c(N4CCC(CO)(c5ccc(Cl)cc5)CC4)cccn3n2)cn1` [Compound 1-11, [1-[2-[(1-butylpyrazol-4-yl)amino]-[1,2,4]triazolo[1,5-a]pyridin-8-yl]-4-(4-chlorophenyl)-4-piperidyl]methanol], the values for the Ki in assay [1] and in assay [2] were 0.42 nM and 0.31 nM, respectively.

Source of the values: US20180327402A1, “TRIAZOLOPYRIDINE COMPOUNDS AND METHODS OF USE THEREOF” (Genentech, Inc., priority 2015, published 2018).
